Assay results published in patent publication US4877876A, “Novel indenothiazole derivative and process for preparing the same” (Hisamitsu Pharmaceutical Co., Inc., priority 1986, dated 1989).
Where a name gives a salt, the structure may show the parent alone.

System: Wistar-strained male rats
Assay: Pharmacological test: ulcer inhibition against ethanol-induced ulcer in rats
Assay type: in vivo
Conditions: test compounds 50 mg/kg orally, one hour before 1 ml pure ethanol orally; compared with 0.5% tragacanth control
Protocol: Groups each consisting of 9 to 10 Wistar-strained male rats, each weighing about 200 g, were used in the test after their abstinence from food and water for 24 hours. Each test compound of this invention was administered in an amount of 50 mg/kg and a comparative medicine, "Neuer" (tradename: produced by Daiichi Pharmaceutical Co., Ltd.; effective component: centraxate) in an amount of 300 mg/kg. Each of the test compounds was administered orally to each rat of a first group and the comparative medicine to each rat of a second group one hour before oral administration of 1 ml of pure ethanol per rat. One hour later, each rat was sacrificed by exsanguination and its stomach was enucleated and fixed with 10 ml of 70% ethanol for about 30 minutes. A 0.5% tragacanth solution was administered to each rat of a third group. The ulcer was measured for length with naked eyes, and the test groups of rats were measured for their respective ulcer inhibition ratios in comparison with that for the third group.
Both the test compounds and the comparative medicine were each suspended or dissolved in a 0.5% tragacanth gum saline solution for use in the test. […] [formula]

Row | Compound | Ulcer inhibition ratio [%]
1 | Fc1ccc2c(c1)Cc1sc(NCCCN3CCOCC3)nc1-2 [Example 1 (dihydrochloride), 2-(3-morpholinopropyl)amino-6-fluoro-8H-indeno[1.2-d]thiazole] | 94.1
2 | Fc1ccc2c(c1)Cc1sc(NCCCN3CCOCC3)nc1-2 [Example 1 (maleic acid salt), 2-(3-morpholinopropyl)amino-6-fluoro-8H-indeno[1.2-d]thiazole] | 89.5
3 | Fc1ccc2c(c1)Cc1sc(NCCCN3CCOCC3)nc1-2 [Example 1, 2-(3-morpholinopropyl)amino-6-fluoro-8H-indeno[1.2-d]thiazole] | 89.0
4 | Fc1ccc2c(c1)CC1SC(=NCCCN3CCOCC3)N=C21 (stereo not drawn) [Example 2] | 93.5
5 | CC(C)CNc1nc2c(s1)Cc1ccccc1-2 [Example 7] | 79.0
6 | Clc1ccc2c(c1)-c1nc(NCCN3CCOCC3)sc1C2 [Example 59] | 85.0
7 | c1ccc2c(c1)Cc1sc(NCCCN3CCOCC3)nc1-2 [Example 61] | 90.0
8 | CC1c2sc(NCCCN3CCOCC3)nc2-c2cccc(Cl)c21 (stereo not drawn) [Example 83 (dihydrochloride)] | 85.9
9 | c1ccc2c(c1)Cc1sc(NCCCCN3CCOCC3)nc1-2 [Example 92] | 83.4
